“And” between values parts separate entries of the source, which are not always exact repeats. Equal entries are not always repeated.

Consider two molecules from patent publication US11883418B2, “Compound TSYI-ZAC for inhibiting dengue virus infection and medicinal use thereof” (Syi Biotechnology Co., Ltd., priority 2022, dated 2024).

One series concerns IL-6. Briefly: IL-6 expression in infected supernatant of DENV-infected Meg-01 cells, enzyme immunoassay. It counts as cell-based, human. Particulars: after dengue virus infection, extract at IC10 concentration. As for the experimental part:
(§1) 2×10^4 Meg-01 cells are lysed in a RPMI culture medium containing 10% fetal bovine serum for in vitro infection with dengue virus. The infection condition is 1 MOI, a total volume of virus sap and cell sap is 2 ml, and the selected virus is dengue virus type 2 (DENV-2), strain 16681. The infection mixture is cultured in a 37° C. incubator for 2 hours, and the tube is shaken once every 30 minutes to increase a chance of virus contacting the cells. After 2 hours, centrifuge (600 rpm, 6 minutes) with a centrifuge to remove the virus that is not in contact with the cells, and re-lyse the cells with an appropriate amount of a cell culture medium, and then divide the cells into a cell culture medium (2 ml) or into a cell culture medium additional added with the Antrodia camphorata extract ZAC and the Antrodia camphorata extract YS-1, the centrifuge tube is finally placed in a 37° C. incubator, and the infection supernatant is collected at specific infection time points (time points: 2 hours, and 1, 2, 3, 5, 7 days after infection). The infection mixture is taken out at the specific time points, centrifuged with a centrifuge (600 rpm, 6 minutes), the infection supernatant is separated, and a viral titer is assayed by viral plaque assay and an expression of cytokines is assayed by enzyme combined with immunosorbent assay. […]

For another series, the system named is IL-8. The series can be described thus: IL-8 expression in infected supernatant of DENV-infected Meg-01 cells, enzyme immunoassay. The format is cell-based, human. The conditions noted are these: after dengue virus infection, extract at IC10 concentration. As for the experimental part: as §1
The subject of series [1] is dengue virus type 2 (DENV-2), strain 16681. The series can be described thus: Dengue virus infection of Meg-01 cells, viral titer by plaque assay. The format is cell-based. Particulars: for dengue viral titer versus infected control: p value<0.0001. Here is the method:
2×10^4 Meg-01 cells are lysed in a RPMI culture medium containing 10% fetal bovine serum for in vitro infection with dengue virus. The infection condition is 1 MOI, a total volume of virus sap and cell sap is 2 ml, and the selected virus is dengue virus type 2 (DENV-2), strain 16681. The infection mixture is cultured in a 37° C. incubator for 2 hours, and the tube is shaken once every 30 minutes to increase a chance of virus contacting the cells. After 2 hours, centrifuge (600 rpm, 6 minutes) with a centrifuge to remove the virus that is not in contact with the cells, and re-lyse the cells with an appropriate amount of a cell culture medium, and then divide the cells into a cell culture medium (2 ml) or into a cell culture medium additional added with the Antrodia camphorata extract ZAC and the Antrodia camphorata extract YS-1, the centrifuge tube is finally placed in a 37° C. incubator, and the infection supernatant is collected at specific infection time points (time points: 2 hours, and 1, 2, 3, 5, 7 days after infection). The infection mixture is taken out at the specific time points, centrifuged with a centrifuge (600 rpm, 6 minutes), the infection supernatant is separated, and a viral titer is assayed by viral plaque assay and an expression of cytokines is assayed by enzyme combined with immunosorbent assay.
7×10^5/well […] kidney epithelial cells (BHK cells) are lysed in 1.5 ml of a DMEM culture medium containing 5% fetal bovine serum and seeded on a 6-well plate. The virus solution to be tested will be serially diluted first. The preparation method is to add 100 μL of unknown virus solution to 900 μL of a DMEM culture medium containing 2% fetal bovine serum to achieve a 10-fold dilution. After the cells to be seeded are attached onto the plate, remove the culture medium, add 400 μL of the virus solution to be tested, and culture in a 37° C. incubator for 2 hours. The plate needs to be shaken once every 15 minutes so that the infection solution can evenly cover the cells. After two hours, the infection solution is removed, methylcellulose is added to limit a range of virus movement, and the plate is placed back into the 37° C. incubator to culture for 7 days. […] Finally, the dye is washed off with clean water, and a number of plaques formed is counted to calculate the viral titer. […]
2 hours after the […] cells are infected by dengue virus, centrifuge to remove excessive virus, and the cells are re-lysed in a cell culture medium containing the Antrodia camphorata extract ZAC (91.68 μg/mL) or the Antrodia camphorata extract YS-1 (176.51 μg/mL), respectively. […] Plaque assay will be used on the collected infected supernatant (n=3) to quantify a viral titer.

The subject of another series is Meg-01 cells. The series can be described thus: Cell viability assay (WST-1) of Meg-01 cells. The format is cell-based, human. Particulars: for IC10 (concentration that produces 10% inhibition of cell viability): Meg-01 cells, co-culture 7 days, WST-1, OD 440 nm; for effect on cell viability: 400 μg/mL; for effect on cell viability / toxicity on Meg-01 cells (cell viability): 7 days; for toxicity on Meg-01 cells (cell viability): low concentrations 25 μg/mL, 50 μg/mL. As for the experimental part:
Meg-01 cell strains (CRL2021, ATCC, human myelo-megakaryocyte leukemia cell strains) are cultured in a RPMI medium with 10% fetal bovine serum, when a cell density reaches 80-90%, the cell sap can be withdrawn into a centrifuge tube, after being centrifuged in a centrifuge (600 rpm, 6 minutes), then remove the supernatant, and re-lyse the centrifuged cells with an appropriate amount of a culture medium for subculture or subsequent experiments.
1×10^3 Meg-01 cells are lysed in 100 μL of 10% fetal bovine serum in a RPMI culture medium and seeded into a 96-well U-shaped plate. Different concentrations of the Antrodia camphorata extract ZAC and the Antrodia camphorata extract YS-1 are added to the cells for co-culture at 37° C. for 7 days, while the cells added with dimethyl sulfoxide (DMSO) are used as an experimental control group.
Please refer to FIG. 1. FIG. 1 is a graph of viability of Meg-01 cells after adding the Antrodia camphorata extract according to one embodiment of the invention. The Meg-01 cells are co-cultured with different concentrations of the Antrodia camphorata extract ZAC or the Antrodia camphorata extract YS-1 respectively, and the group added with DMSO is used as an experimental control group. After the cells are co-cultured with the Antrodia camphorata extract for 7 days, WST-1 assay reagent is added to the cells and OD 440 nm value is collected to assay a toxicity of the drug on the cells, the cell group without addition of the Antrodia camphorata extract is regarded as an experimental control group, and the cell groups added with different concentrations of the Antrodia camphorata extract are regarded as experimental groups.
(In general: Tetrazolium dyes change colour on reduction, which living cells bring about.)

The test system of a further series is IFN-α. Briefly: IFN-α expression in infected supernatant of DENV-infected Meg-01 cells, enzyme immunoassay. It counts as cell-based, human. Particulars: 5th and 7th days after infection, extract at IC10 concentration; day 5 P value 0.0021. As for the experimental part:
as §1

As to `COc1cc(C)c(OC)c2c1OCO2` [YS-1, 4,7-dimethoxy-5-methyl-1,3-benzodioxole], in the series on IL-6, the “expression of cellular inflammatory factor IL-6” value is recorded as “effectively reducing an expression”. Besides, the “expression of cellular inflammatory factor IL-8” value with IL-8 was “effectively reducing an expression”. Besides, the “dengue viral titer versus infected control” value in series [1] (176.51 μg/mL added after infection) is “significantly reducing the viral titer”. Besides, the “inhibitory effect on dengue virus (viral titer)” value in series [1] (high dose 176.51 μg/mL compared with low dose 25 μg/mL) was “better inhibitory effect on dengue virus”; in series [1] (low dose 25 μg/mL), “inhibitory effect on dengue virus”. Moreover, the “IC10 (concentration that produces 10% inhibition of cell viability)” value in the series on Meg-01 cells was 176.512 µg/mL and 176.51 µg/mL. Further, the “effect on cell viability” value in the series with Meg-01 cells (higher concentrations 200 μg/mL) is “slight effect on cell viability”. Besides, in the series on Meg-01 cells (100 μg/mL), the “toxicity on Meg-01 cells (cell viability)” value is listed as “generally not toxic”.

As to `C=C(CC[C@@H](C)[C@H]1CC[C@H]2C3=C(C(=O)[C@H](O)[C@]12C)[C@@]1(C)CC[C@@H](O)[C@@H](C)[C@@H]1CC3=O)C(C)C(=O)O` (stereo partly drawn) [ZAC, Zhankuic acid C], the “expression of cellular inflammatory factor IL-6” value in the series with IL-6 was “effectively reducing an expression”. Besides, the “amount of secretion of IFN-α versus infected control” value with IFN-α is listed as “significantly higher”. Further, in the series on IL-8, the “expression of cellular inflammatory factor IL-8” value was “effectively reducing an expression”. In addition, in series [1] (91.68 μg/mL added 2 hours after infection, late stages of infection (5th to 7th days)), the “dengue viral titer versus infected control” value is given as “decreases significantly”. Moreover, in the series with Meg-01 cells, the “IC10 (concentration that produces 10% inhibition of cell viability)” value was 91.675 µg/mL and 91.68 µg/mL; the “toxicity on Meg-01 cells (cell viability)” value is recorded as “generally has no toxicity”. For the same molecule, in the series with Meg-01 cells (higher concentrations 100 μg/mL, 200 μg/mL), the “effect on cell viability” value is given as “slight effect on cell viability”.
